We go through 35 molecules from patent US7291621B2, “Substituted biaryl amides C5a receptor modulators” (Neurogen Corporation, priority 2002, dated 2007).

Read-outs that look alike come from different tables or passages of the source.

The assay has as its target T1, C5a receptor (Homo sapiens, UniProt P21730).
T1 construct: endogenous in cells; host or cells: U937 cells differentiated with 1 mM dibutyryl cAMP
T1 sequence (P21730 1-350): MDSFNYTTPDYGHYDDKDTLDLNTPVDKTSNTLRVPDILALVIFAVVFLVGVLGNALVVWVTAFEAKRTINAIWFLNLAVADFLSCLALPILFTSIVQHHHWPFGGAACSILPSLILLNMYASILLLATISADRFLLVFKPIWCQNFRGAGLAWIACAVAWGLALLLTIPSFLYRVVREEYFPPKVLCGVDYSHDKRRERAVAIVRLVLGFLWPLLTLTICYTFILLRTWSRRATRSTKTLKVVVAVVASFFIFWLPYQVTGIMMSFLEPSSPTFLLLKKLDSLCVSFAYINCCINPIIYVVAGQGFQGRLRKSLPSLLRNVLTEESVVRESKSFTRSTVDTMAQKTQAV
The assay is described as follows: standard assay of C5a receptor mediated calcium mobilization. The class given is cell-based. Conditions: asterisk = tested in C5a receptor mediated calcium mobilization assay, read-out: Ca2+ Mob. On the procedure: U937 cells are grown in differentiation media (1 mM dibutyrl cAMP in RPMI 1640 medium containing 10% fetal bovine serum) for 48 hrs at 37° C. then reseeded onto 96-well plates suitable for use in a FLIPR™ Plate Reader (Molecular Devices Corp., Sunnyvale Calif.). Cells are grown an additional 24 hours (to 70-90% confluence) before the assay. The cells are then washed once with Krebs Ringer solution. FLUO-3 calcium sensitive dye (Molecular Probes, Inc. Eugene, Oreg.) is added to 10 μg/mL and incubated with the cells at room temperature for 1 to 2 hours. The 96 well plates are then washed to remove excess dye. Fluorescence responses, measured by excitation at 480 nm and emission at 530 nm, are monitored upon the addition of human C5a to the cells to a final concentration of 0.01-30.0 nM, using the FLIPR™ device (Molecular Devices).
The calcium mobilization assay described above may be readily adapted for identifying test compounds that have agonist or antagonist activity at the human C5a receptor.
For example, in order to identify antagonist compounds, differentiated U937 cells are washed and incubated with Fluo-3 dye as described above. One hour prior to measuring the fluorescence signal, a subset of the cells is incubated with 1 μM of at least one compound to be tested. The fluorescence response upon the subsequent addition of 0.3 nM (final concentration) human recombinant C5a is monitored using the FLIPR™ plate reader. Antagonist compounds elicit at least a 2-fold decrease in the fluorescence response relative to that measured in the presence of human C5a alone. Preferred antagonist compounds elicit at least a 5-fold, preferably at least a 10-fold, and more preferably at least a 20-fold decrease in the fluorescence response relative to that measured in the presence of human C5a alone.
(In general: Calcium flux is commonly read through the fluorescence of an indicator in the cells.)

`COc1ccc(-c2ccc(C)s2)c(C(=O)N(Cc2ccccc2)C2Cc3ccccc3C2)c1` [compound 70, N-benzyl-N-(indan-2-yl)-5-methoxy-2-(5-methylthien-2-yl)benzamide]: the Ki (Table I) was < 1000 nM.

Consider `Cc1ccc2ccccc2c1C(=O)N(CCc1ccccc1)C1Cc2ccccc2C1` [compound 235, 2-Methyl-naphthalene-1-carboxylic acid indan-2-yl-phenethyl-amide], for which, where the note is “Table III”, the Ki was < 1000 nM.

For `O=C(c1ccccc1-c1cccc(Cl)c1)N(Cc1ccccc1)Cc1ccccc1` [compound 49, N,N-dibenzyl-3′-chloro-1,1′-biphenyl-2-carboxamide], where the note is “Table I”, the Ki was < 1000 nM.

As to `O=C(c1cc(Cl)ccc1-c1ccccc1)N(Cc1ccccc1F)C1Cc2ccccc2C1` [compound 134, 4-chloro-N-(indan-2-yl)-N-(2-fluorobenzyl)-1,1′-biphenyl-2-carboxamide], the Ki (Table I) is < 1000 nM.

As to `O=C(c1c(O)ccc2ccccc12)N(Cc1ccccc1F)C1Cc2ccccc2C1` [compound 237, 2-Hydroxy-naphthalene-1-carboxylic acid (2-fluoro-benzyl)-indan-2-yl-amide], the Ki (Table III) is < 1000 nM.

For the molecule `COc1ccc(-c2ccccc2C(=O)N(Cc2ccccc2)Cc2ccccc2)cc1OC` [compound 46, N,N-dibenzyl-3′,4 ′-dimethoxy-1,1′-biphenyl-2-carboxamide], where the note is “Table I”, the Ki is < 1000 nM.

As for `Cc1cccc(-c2ccccc2)c1C(=O)N(Cc1ccc(F)c(F)c1)C1Cc2ccccc2C1` [compound 126, N-(3,4-difluorobenzyl)-N-(indan-2-yl)-3-methyl-1,1′-biphenyl-2-carboxamide], the Ki (Table I) was < 1000 nM.

As for `O=C(c1ccccc1-c1ccccc1)N(Cc1cccc(F)c1)C1Cc2ccccc2C1` [compound 77, N-(indan-2-yl)-N-(3-fluorobenzyl)-1,1′-biphenyl-′-carboxamide], the Ki (Table I) was < 1000 nM.

For the molecule `O=C(c1cc(Cl)ccc1-c1ccccc1)N(Cc1ccc(F)c(F)c1)C1Cc2ccccc2C1` [compound 137, 4-chloro-N-(3,4-difluorobenzyl)-N-(indan-2-yl)-1,1′-biphenyl-2-carboxamide], the Ki (Table I) was < 1000 nM.

On to `O=C(c1ccccc1-c1ccccc1)N(Cc1ccccc1)C1Cc2ccccc2C1` [compound 60, N-benzyl-N-(indan-2-yl)-1,1′-biphenyl-2-carboxamide], for which the Ki (Table I) is < 1000 nM.

Take `Cc1ccccc1CN(C(=O)c1c(C)cccc1-c1ccccc1)C1Cc2ccccc2C1` [compound 120, N-(indan-2-yl)-3-methyl-N-(2-methylbenzyl)-1,1′-biphenyl-2-carboxamide]: the Ki (Table I) is < 1000 nM.

Take `Cc1cccc(-c2ccccc2)c1C(=O)N(Cc1ccc(F)cc1)C1Cc2ccccc2C1` [compound 125, N-(indan-2-yl)-N-(4-fluorobenzyl)-3-methyl-1,1′-biphenyl-2-carboxamide]: the Ki (Table I) was < 1000 nM.

On to `Cc1ccc(CN(C(=O)c2c(C)cccc2-c2ccccc2)C2Cc3ccccc3C2)cc1` [compound 122, N-(indan-2-yl)-3-methyl-N-(4-methylbenzyl)-1,1′-biphenyl-2-carboxamide], for which, under “Table I”, the Ki was < 1000 nM.

Turning to `COc1cccc(-c2ccccc2C(=O)N(Cc2ccc(F)cc2)C2Cc3ccccc3C2)c1` [compound 92, N-(indan-2-yl)-N-(4-fluorobenzyl)-3′-methoxy-1,1′-biphenyl-2-carboxamide], the Ki (Table I) is < 1000 nM.

In the case of `COc1ccc2ccccc2c1C(=O)N(Cc1ccccc1)Cc1cc(C)c(O)c(C)c1` [compound 217, N-benzyl-N-(4-hydroxy-3,5-dimethylbenzyl)-2-methoxy-1-naphthamide], the Ki (Table III) was < 1000 nM.

As for `Cc1ccccc1-c1ccccc1C(=O)N(Cc1ccccc1)Cc1ccccc1` [compound 53, N,N-dibenzyl-2′-methyl-1,1′-biphenyl-2-carboxamide], the Ki (Table I) is < 1000 nM.

Take `COc1ccc(CN(C(=O)c2ccccc2-c2ccsc2)C2Cc3ccccc3C2)cc1` [compound 83, N-(indan-2-yl)-N-(4-methoxybenzyl)-2-thien-3-ylbenzamide]: the Ki (Table I) was < 1000 nM.

For `Cc1ccc(CN(C(=O)c2c(O)ccc3ccccc23)C2Cc3ccccc3C2)cc1` [compound 238, 2-Hydroxy-naphthalene-1-carboxylic acid (4-methyl-benzyl)-indan-2-yl-amide], the Ki (Table III) is < 1000 nM.

In the case of `Cc1ccc(-c2ccccc2C(=O)N(Cc2ccc(F)cc2)C2Cc3ccccc3C2)cc1` [compound 91, N-(indan-2-yl)-N-(4-fluorobenzyl)-4′-methyl-1,1′-biphenyl-2-carboxamide], the Ki (Table I) is < 1000 nM.

For the molecule `Cc1ccc(-c2cccc(C)c2C(=O)N(Cc2ccccc2)C2Cc3ccccc3C2)s1` [compound 115, N-benzyl-N-(indan-2-yl)-2-methyl-6-(5-methylthien-2-yl)benzamide], the Ki (Table I) is < 1000 nM.

Take `COc1ccc2ccccc2c1C(=O)N(CCc1ccccc1)C1Cc2ccccc2C1` [compound 220, 2-Methoxy-naphthalene-1-carboxylic acid indan-2-yl-phenethyl-amide]: for the setting “Table III”, the Ki is < 1000 nM.

With `Cc1cccc(-c2ccccc2)c1C(=O)N(Cc1cccc(F)c1)C1Cc2ccccc2C1` [compound 124, N-(indan-2-yl)-N-(3-fluorobenzyl)-3-methyl-1,1′-biphenyl-2-carboxamide], the Ki (Table I) was < 1000 nM.

Take `COc1ccc2ccccc2c1C(=O)N(Cc1ccc2c(c1)OCO2)C1Cc2ccccc2C1` [compound 228, 2-Methoxy-naphthalene-1-carboxylic acidbenzo[1,3]dioxol-5-ylmethyl-indan-2-yl-amide]: the Ki (Table III) is < 1000 nM.

As to `O=C(c1ccccc1-c1cccs1)N(Cc1ccccc1)C1Cc2ccccc2C1` [compound 63, N-benzyl-N-(indan-2-yl)-2-thien-2-ylbenzamide], under “Table I”, the Ki was < 1000 nM.

`Cc1ccc(-c2ccccc2C(=O)N(Cc2ccccc2)Cc2cc(C)c(O)c(C)c2)s1` [compound 147, N-benzyl-N-(4-hydroxy-3,5-dimethylbenzyl)-2-(5-methylthien-2-yl)benzamide]: under “Table I”, the Ki was < 1000 nM.

For the molecule `COc1ccc(-c2ccccc2)c(C(=O)N(Cc2ccc(F)cc2)C2Cc3ccccc3C2)c1` [compound 110, N-(indan-2-yl)-N-(4-fluorobenzyl)-4-methoxy-1,1′-biphenyl-2-carboxamide], where the note is “Table I”, the Ki was < 1000 nM.

On to `Cc1ccc(-c2ccccc2C(=O)N(Cc2cccc(C)c2)C2Cc3ccccc3C2)cc1` [compound 97, N-(indan-2-yl)-4′-methyl-N-(3-methylbenzyl)-1,1′-biphenyl-2-carboxamide], for which the Ki (Table I) was < 1000 nM.

With `COc1cccc(CN(CCc2ccccc2)C(=O)c2cc(Cl)ccc2-c2ccccc2)c1` [compound 145, 4-chloro-N-(3-methoxybenzyl)-N-(2-phenylethyl)-1,1′-biphenyl-2-carboxamide], the Ki (Table I) is < 1000 nM.

As for `Cc1ccc(-c2ccccc2C(=O)N(Cc2ccccc2)Cc2ccc(O)cc2Cl)s1` [compound 149, N-benzyl-N-(2-chloro-4-hydroxybenzyl)-2-(5-methylthien-2-yl)benzamide], the Ki (Table I) was < 1000 nM.

Consider `COc1cccc(-c2ccccc2)c1C(=O)N(Cc1ccccc1)C1Cc2ccccc2C1` [compound 67, N-benzyl-N-(indan-2-yl)-3-methoxy-1,1′-biphenyl-2-carboxamide], for which, under “Table I”, the Ki is < 1000 nM.

For the molecule `O=C(c1ccccc1-c1ccccc1)N(Cc1ccccc1)Cc1ccc(OC(F)F)cc1` [compound 151, N-benzyl-N-[4-(difluoromethoxy)benzyl]-1,1′-biphenyl-2-carboxamide], the Ki (Table I) is < 1000 nM.

On to `Cc1cc(CN(Cc2ccccc2)C(=O)c2cc(Cl)ccc2-c2ccccc2)cc(C)c1O` [compound 142, N-benzyl-4-chloro-N-(4-hydroxy-3,5-dimethylbenzyl)-1,1′-biphenyl-2-carboxamide], for which, where the note is “Table I”, the Ki is < 1000 nM.

On to `Cc1ccc(-c2ccccc2C(=O)N(Cc2ccccc2)Cc2ccccc2)cc1C` [compound 40, N,N-dibenzyl-3′,4′-dimethyl-1,1′-biphenyl-2-carboxamide], for which the Ki (Table I) is < 1000 nM.

On to `O=C(c1cc(Cl)ccc1-c1ccccc1)N(Cc1cccc(F)c1)C1Cc2ccccc2C1` [compound 135, 4-chloro-N-(indan-2-yl)-N-(3-fluorobenzyl)-1,1′-biphenyl-2-carboxamide], for which, under “Table I”, the Ki is < 1000 nM.

Consider `O=C(c1ccccc1-c1ccc(Cl)cc1Cl)N(Cc1ccccc1)Cc1ccccc1` [compound 52, N,N-dibenzyl-2′,4′-dichloro-1,1′-biphenyl-2-carboxamide], for which the Ki (Table I) was < 1000 nM.
